Laboratory results published in patent US8461186B2, “Use of N-piperidine derivatives for the treatment of neurodegenerative pathologies” (Medestea Research & Production S.p.A., priority 2004, dated 2013).

Tested on: lipid peroxidation in the heart tissue
Experiment: Malondialdehyde (MDA) in the heart tissue in myocardial ischaemia and reperfusion
Format: in vivo, rat
Conditions: I/R rats, 10 mg/kg bolus then 2 mg/kg/h; p<0.01 (FIG. 2)
Protocol: […]. Enzymol. 52, 302-310, 1978.
The following test groups were considered: a) LAD occlusion (25 minutes) and reperfusion (2 hours) plus administration of the vehicle (saline solution, 3 ml/kg-v-bolus plus 1.8 ml/kg/h) starting 5 minutes after reperfusion and maintained during the reperfusion period; b) LAD occlusion and reperfusion plus administration of MP1002 or MP1001 (10 mg/kg injection in bolus) 5 minutes prior to reperfusion, followed by infusion of 2 mg/kg/h during the reperfusion period; c) sham operation (no LAD occlusion) and infusion of the vehicle; d) sham operation and infusion of MP1002 or MP1001 as described above.
The malondialdehyde (MDA) in the heart tissue as final peroxidation product of the cell membrane lipids was also determined as described above.

Structure (SMILES)	development of lipid peroxidation in heart tissue (MDA)
CC1(C)CC(OC(=O)CCCCCCCCC(=O)OC2CC(C)(C)N(O)C(C)(C)C2)CC(C)(C)N1O [MP1001, BIS(1-HYDROXYL-2,2,6,6-TETRAMETHYL-4-PIPERIDINYL)DECANDIOATE]	reduced the development of peroxidation to levels similar to those of the animals that were subjected to sham operations
CC1(C)CC(OC(=O)CCCCCCCCC(=O)OC2CC(C)(C)N(O)C(C)(C)C2)CC(C)(C)N1O [MP1002, bis(1-oxyl-2,2,6,6-tetramethyl-4-piperidinyl)decandioate]	reduced the development of peroxidation to levels similar to those of the animals that were subjected to sham operations
